Laboratory results published in patent publication US4578400A, “Therapeutic composition and method for treatment of cardiovascular diseases” (priority 1982, dated 1986).

What was measured:
[1] = tested on: chloroform-induced arrhythmia (ventricular fibrillation); assay: Effect on chloroform-induced arrhythmia; assay type: in vivo, male ddy mice; conditions: for Percent occurrence of ventricular fibrillation: control 100; for anti-arrhythmic potency compared with lidocaine (in words): 100 mg/kg oral vs lidocaine 10 mg/kg i.p.
Source text: When they stopped breathing, they were thoracotomized to examine the occurrence of ventricular fribrillation. The results are noted in Table 2 as percent occurrence of ventricular fibrillation.

Acute toxicity = conditions: one week observation
Source text: Male ddy mice weighing about 25 g were divided into groups of 10 animals and orally administered once with 3 g/kg of 5--HDA, 5--HDA--Na, 5--HDAE, 5--HDA--DHP or δ-DL, or intraperitoneally injected once with 1 g/kg of said compounds.

[2] = Solubility (physicochemical properties, Table 1)
[3] = tested on: ouabain induced arrhythmia; assay: Effect on ouabain induced arrhythmia; assay type: in vivo, male hartley guinea pigs; conditions: for relative time for extrasystole to occur / relative time for ventricular fibrillation to occur / relative time for cardiac arrest to occur: control = 100; for relative time for ventricular fibrillation to occur: *P < 0.05; for antiarrhythmic effects (in words): ouabain induced arrhythmia
Source text: Effect on ouabain induced arrhythmia
The procedure described in Matsubara et al. (Folia Pharmacologica Japonica, 72, 557-571, 1976) was followed.
Male hartley guinea pigs were divided into groups of 8 animals and anesthetized with intraperitoneal urethane. Three groups were orally administered 5--HDA--Na, 5--HDAE and 5--HDA--DHP dissolved in distilled water. Another group was intravenously injected with 5--HDA--Na dissolved in physiological saline. One group was orally administered δ-DL emulsified in 5% aqueous arabic gum solution. One group was injected intravenously with lidocaine dissolved in physiological saline. For the respective routes of administration, control groups were administered the solvents used in administration of the test compounds. Thirty minutes after the oral administration and one minute after the intravenous injection, ouabain was infused into the jugular vein at a rate of 5 μg/kg/min until extrasystole, ventricular fibrillation and cardiac arrest appeared on a standard limb lead II of ECG. The results are shown in Table 3, with the time necessary for the respective symptoms to occur in the control groups taken as 100.

[4] = Lowering serum lipid levels in Triton-induced hyperlipidemic rats; assay type: in vivo, male Wistar rats; conditions: for inhibition rate, total cholesterol (serum) / inhibition rate, triglyceride (serum): 100 mg/kg oral, four times, against control, 10 hours after Triton WR-1339, *P < 0.05; for antilipidemic effects compared with Clofibrate (in words): 100 mg/kg, oral
Procedure: After 10 hours, blood samples were drawn to determine the serum levels of total cholesterol and triglyceride.

[5] = target: T1, 3-hydroxy-3-methylglutaryl coenzyme A (HMG-Co A) reductase (Rattus norvegicus, UniProt P51639); assay: Inhibition of HMG-CoA reductase activity; assay type: biochemical, rat (liver microsome); conditions: rat liver microsome; read-out: IC30 (amount necessary for inhibiting the enzymatic activity by 30%)
T1 sequence (P51639 1-887): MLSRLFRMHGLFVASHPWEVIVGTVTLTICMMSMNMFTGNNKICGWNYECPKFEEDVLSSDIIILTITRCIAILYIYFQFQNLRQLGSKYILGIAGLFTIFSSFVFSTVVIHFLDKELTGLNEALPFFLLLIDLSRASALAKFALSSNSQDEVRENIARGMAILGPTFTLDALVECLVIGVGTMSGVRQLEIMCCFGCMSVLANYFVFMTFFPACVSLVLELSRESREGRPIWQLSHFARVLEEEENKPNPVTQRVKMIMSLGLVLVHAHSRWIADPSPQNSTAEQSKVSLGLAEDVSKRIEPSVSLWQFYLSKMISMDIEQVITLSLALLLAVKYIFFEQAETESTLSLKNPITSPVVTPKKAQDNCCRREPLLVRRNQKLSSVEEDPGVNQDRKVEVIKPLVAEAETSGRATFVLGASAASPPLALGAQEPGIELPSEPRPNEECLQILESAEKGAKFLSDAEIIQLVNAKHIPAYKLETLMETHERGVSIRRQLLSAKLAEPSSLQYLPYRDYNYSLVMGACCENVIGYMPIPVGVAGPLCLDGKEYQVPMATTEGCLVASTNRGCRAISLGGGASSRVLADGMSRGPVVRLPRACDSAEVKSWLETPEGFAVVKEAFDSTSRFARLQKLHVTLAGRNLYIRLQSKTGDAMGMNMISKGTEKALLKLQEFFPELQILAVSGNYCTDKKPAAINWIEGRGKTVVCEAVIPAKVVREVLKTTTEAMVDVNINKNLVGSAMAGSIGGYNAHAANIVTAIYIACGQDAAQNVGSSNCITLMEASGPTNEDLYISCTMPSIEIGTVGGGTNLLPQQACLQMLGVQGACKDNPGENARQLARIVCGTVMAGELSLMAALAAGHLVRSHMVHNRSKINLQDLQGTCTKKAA
Source text: Inhibition of the activity of 3-hydroxy-3-methylglutaryl coenzyme A (HMG-Co A) reductase

[6] = tested on: ventricular fibrillation after coronary artery ligation; assay: Antiarrhythmic effects on myocardial infarction (coronary ligation); assay type: in vivo, dogs; conditions: before ligation = 100, control 41
Source text: Antiarrhythmic effects on myocardial infarction
The method described by Shinohara (Jap. Circul. J., 32, 1269-1281, 1968) was used. Dogs were divided into groups of 5 animals, anesthetized with intravenous pentobarbital and were thoracotomized under artificial respiration, and a platinum bipolar electrode was inserted on the wall of the right atrium. Then the sinus node was crushed and the animals were subjected to pacing (2.5 Hz, 3 msec, 3.5-8 V) with an electronic stimulator. The left anterior descending coronary artery was doubly ligated at a site 2 cm away from its origin (A. S. Harris, Circulation, 1, 1318, 1950). Then 5--HDA--Na and lidocaine were injected into the femoral vein of the respective dogs. Using an electrode inserted in an ischemic zone in the left ventricle, the animals were given 15 to 20 successive electrical shocks before the ligation and 30 minutes after the ligation and administration. The threshold level necessary for inducing ventricular fibrillation was determined for each group of animals and shown in Table 4, with the values before the ligation taken as 100.

[7] = tested on: chloroform-induced arrhythmia (ventricular fibrillation); conditions: stated without own data; cited from earlier work
[8] = Lowering serum cholesterol levels in hyperlipidemic rabbits; assay type: in vivo, male Japanese white rabbits; conditions: 100 mg/kg oral daily for 7 days
Source text: Male Japanese white rabbits weighing about 2.5 kg were fed on a solid diet containing 1% cholesterol (RC-4, Nippon Crea Co., Ltd.) for 10 weeks until hypercholesterolemia fully developed. The rabbits were then divided into groups of 5 animals, and 5--HDA--Na or δ-DL was orally admininistered daily for 7 days, either as a solution or as an emulsion in 5% aqueous arabic gum. Three hours after the last administration, blood was drawn to determine the serum level of cholesterol.

[9] = 100 mg/kg, oral, 15 min before chloroform, *P < 0.05
[10] = oral, 100 mg/kg, *P < 0.05 where starred

Row | SMILES | anti-arrhythmic potency compared with lidocaine (in words) [1] | anti-arrhythmic effects (in words) ([1]; 100 mg/kg, oral) | Percent occurrence of ventricular fibrillation [1, 9] | acute toxicity: abnormality (Acute toxicity; 1 g/kg intraperitoneal once) | acute toxicity: death (Acute toxicity; 1 g/kg intraperitoneal once) | acute toxicity: abnormality (Acute toxicity; 3 g/kg oral once) | acute toxicity: death (Acute toxicity; 3 g/kg oral once) | solubility in acetone [2] | solubility in benzene [2] | solubility in chloroform [2] | solubility in methanol [2] | solubility in water [2] | relative time for extrasystole to occur ([3]; oral, 100 mg/kg) | relative time for ventricular fibrillation to occur ([3]; oral, 100 mg/kg) | relative time for cardiac arrest to occur [3, 10] | antiarrhythmic effects (in words) [3] | inhibition rate, total cholesterol (serum) [4] | inhibition rate, triglyceride (serum) [4] | antilipidemic effects compared with Clofibrate (in words) [4] | also measured
1 | CCCCCC(O)CCCC(=O)O (stereo not shown) [5-HDA, 5-hydroxy-decanoic acid] | more potent than lidocaine | significant anti-arrhythmic effects | 30 | no abnormality occurred | no animal died | no abnormality occurred | no animal died | easily | easily | easily | easily | sparingly | – | – | – | – | – | – | – | Percent occurrence of ventricular fibrillation ([1]; 50 mg/kg, oral, 15 min before chloroform): 60
2 | CCCCCC(O)CCCC(=O)OCC(O)CO (stereo not shown) [5-HDA-DHP, 2',3'-dihydroxy-propyl-5-hydroxydecanoate] | more potent than lidocaine | significant anti-arrhythmic effects | 20 | no abnormality occurred | no animal died | no abnormality occurred | no animal died | easily | – | easily | easily | soluble | 193 | 139 | 122 | significant antiarrhythmic effects | 19% | 18% | equipotent to or stronger than the effect of the known anti-lipidemic agent, Clofibrate | –
3 | CCCCCC(O)CCCC(=O)OCC (stereo not shown) [5-HDAE, Ethyl-5-hydroxy-decanoate] | more potent than lidocaine | significant anti-arrhythmic effects | 30 | no abnormality occurred | no animal died | no abnormality occurred | no animal died | easily | easily | easily | easily | sparingly | 151 | 146 | 132 | significant antiarrhythmic effects | 19% | 17% | equipotent to or stronger than the effect of the known anti-lipidemic agent, Clofibrate | –
4 | CCOC(=O)C(C)(C)Oc1ccc(Cl)cc1 [Clofibrate, reference compound] | – | – | – | – | – | – | – | – | – | – | – | – | – | – | – | – | 14% | 16% | – | –
5 | CC[C@H](C)C(=O)O[C@H]1CCC=C2C=C[C@H](C)[C@H](CC[C@@H]3C[C@@H](O)CC(=O)O3)[C@H]21 [Compactin, reference compound] | – | – | – | – | – | – | – | – | – | – | – | – | – | – | – | – | – | – | – | IC30 [5]: 30 µM
6 | CCN(CC)CC(=O)Nc1c(C)cccc1C [Lidocaine, reference compound] | – | – | – | – | – | – | – | – | – | – | – | – | – | – | – | – | – | – | – | relative time for cardiac arrest to occur ([3]; i.v., 10 mg/kg): 118; relative time for extrasystole to occur ([3]; i.v., 10 mg/kg): 133; relative time for ventricular fibrillation to occur ([3]; i.v., 10 mg/kg): 129; Threshold level for inducing ventricular fibrillation, 30 min after ligation ([6]; 0.3 mg/kg i.v.): 68; Threshold level for inducing ventricular fibrillation, 30 min after ligation ([6]; 1.0 mg/kg i.v., *P < 0.05): 84; Percent occurrence of ventricular fibrillation ([1]; 10 mg/kg, intraperitoneally 5 minutes before chloroform): 40; effectiveness by oral administration (in words) [7]: not effective by oral administration
7 | CCCCCC1CCCC(=O)O1 (stereo not drawn) [δ-DL, δ-decalactone] | more potent than lidocaine | significant anti-arrhythmic effects | 30 | no abnormality occurred | no animal died | no abnormality occurred | no animal died | easily | easily | easily | easily | insoluble | 157 | 137 | 140 | significant antiarrhythmic effects | 23% | 11% | equipotent to or stronger than the effect of the known anti-lipidemic agent, Clofibrate | serum level of total cholesterol (in words) [8]: lowered the serum level of total cholesterol; Total serum cholesterol ([8]; 3 h after last administration, control 1,394, *P < 0.05): 1,141 mg/dl; solubility in hexane ([2]; hexane): easily
